MIC data for 11 molecules are collected here from patent US4143166A, “7[(2-Hydroxyamino-2-disubstituted phenyl-acetamido)-]3-heterocyclicthio-3-cephem-4-carboxylic acids” (Fujisawa Pharmaceutical Co., Ltd., priority 1975, dated 1979).

Common to all, as to format: cell-based
One assay has as its system E coli 341. In words: In vitro antibacterial activity, two-fold agar-plate dilution method (MIC), E coli 341. The conditions noted are these: read-out: minimal inhibitory concentration (MIC). As for the experimental part:
(§1) In vitro antibacterial activity was determined by the two-fold agar-plate dilution method as described below.
(§2) One loopful of an overnight culture of each test strain in Trypticase-soy broth (10^8 viable cells per ml) was streaked on heart infusion agar (HI-agar) containing graded concentrations of antibiotics, and the minimal inhibitory concentration (MIC) was expressed in terms of μg/ml after incubation at 37° C. for 20 hours.

The subject of another assay is Ps. aeruginosa721. In words: In vitro antibacterial activity, two-fold agar-plate dilution method (MIC), Ps. aeruginosa 721. To be noted: Pseudomonas aeruginosa, read-out: minimal inhibitory concentration (MIC). As for the experimental part: as §1, §2
Another assay concerns Kl. pneumoniae 417. Briefly: In vitro antibacterial activity, two-fold agar-plate dilution method (MIC), Kl. pneumoniae 417. The conditions noted are these: Klebsiella pneumoniae, HI-agar, 37° C., 20 hours, 10^8 viable cells per ml, read-out: minimal inhibitory concentration (MIC). As for the experimental part:
as §1, §2

The test system of a further assay is Sh. flexneri2a. In words: In vitro antibacterial activity, two-fold agar-plate dilution method (MIC), Sh. flexneri 2a. The conditions noted are these: Shigella flexneri, HI-agar, 37° C., 20 hours, 10^8 viable cells per ml, read-out: minimal inhibitory concentration (MIC). As for the experimental part:
as §1, §2

The subject of a further assay is Sal. Enteritidis. Briefly: In vitro antibacterial activity, two-fold agar-plate dilution method (MIC), Sal. Enteritidis. To be noted: Salmonella enterica, read-out: minimal inhibitory concentration (MIC). How it is done: as §1, §2
In the next assay the test system is Pr. mirabilis 525. Briefly: In vitro antibacterial activity, two-fold agar-plate dilution method (MIC), Pr. mirabilis 525. The conditions noted are these: read-out: minimal inhibitory concentration (MIC). As for the experimental part: as §1, §2
[1] abbreviates: E coli 341, HI-agar, 37° C., 20 hours, 10^8 viable cells per ml.
Where [2] appears, read: Ps. aeruginosa721, HI-agar, 37° C., 20 hours, 10^8 viable cells per ml.
The mark [3] stands for this setting: Proteus mirabilis, Pr. mirabilis 525, HI-agar, 37° C., 20 hours, 10^8 viable cells per ml.
Where [4] appears, read: Sal. Enteritidis, HI-agar, 37° C., 20 hours, 10^8 viable cells per ml.

Structures are written as SMILES. In brackets after ≈: the same amount, converted by molar mass. Read-outs that look alike come from different tables or passages of the source.

In the case of `Cn1nnnc1SCC1=C(C(=O)O)N2C(=O)C(NC(=O)/C(=N\O)c3ccc(O)cc3)C2SC1` (stereo not drawn) [Test Compound (1), Sodium 7-[2-hydroxyimino-2-(4-hydroxyphenyl)acetamido]-3-(1-methyl-1H-tetrazol-5-yl)thiomethyl-3-cephem-4-carboxylate (syn isomer)], the MIC in the assay on E coli 341 (setting [1]) stood at 1.56 µg/mL; with Ps. aeruginosa721 (setting [2]) it was 25 µg/mL; with Kl. pneumoniae 417 it was 3.13 µg/mL; in the assay with Sh. flexneri2a, 0.78 µg/mL; in the assay on Sal. Enteritidis (ENTERITIDIS, 20 h), 3.13 µg/mL; in the assay on Pr. mirabilis 525 (setting [3]) it was 1.56 µg/mL.
As to `Cn1nnnc1SCC1=C(C(=O)O)N2C(=O)C(NC(=O)/C(=N\O)c3cccc(O)c3)C2SC1` (stereo not drawn) [Test Compound (2), Sodium 7-(2-hydroxyimino-2-(3-hydroxyphenyl)acetamido]-3-(1-methyl-1H-tetrazol-5-yl)thiomethyl-3-cephem-4-carboxylate (syn isomer)], the MIC in the assay on E coli 341 (setting [1]) is 0.78 µg/mL; in the assay with Ps. aeruginosa721 (setting [2]), 100 µg/mL; in the assay on Kl. pneumoniae 417, 0.78 µg/mL; in the assay with Sh. flexneri2a it was 0.78 µg/mL; with Sal. Enteritidis (setting [4]), 1.56 µg/mL; with Pr. mirabilis 525 (setting [3]), 1.56 µg/mL.
As for `CC(=O)OCC1=C(C(=O)O)N2C(=O)C(NC(=O)/C(=N\O)c3ccc(O)c(Cl)c3)C2SC1` (stereo not drawn) [Test Compound (3), Sodium 7-[2-hydroxyimino-2-(3-chloro-4-hydroxyphenyl)acetamido]cephalosporanate (syn isomer)], the MIC in the assay with E coli 341 (setting [1]) was 6.25 µg/mL; in the assay with Ps. aeruginosa721 (20 h) it was 3.13 µg/mL; in the assay on Kl. pneumoniae 417, 3.13 µg/mL; with Sh. flexneri2a it was 3.13 µg/mL; in the assay on Sal. Enteritidis (setting [4]) it was 0.78 µg/mL; in the assay on Pr. mirabilis 525 (setting [3]), 0.39 µg/mL.
With `O=C(O)C1=C(CSc2nncs2)CSC2C(NC(=O)/C(=N\O)c3cccc(O)c3)C(=O)N12` (stereo not drawn) [Test Compound (4), 7-[2-Hydroxyimino-2-[3-hydroxyphenyl)acetamido]-3-(1,3,4-thiadiazol-2-yl)thiomethyl-3-cephem-4-carboxylic acid (syn isomer)], the MIC with E coli 341 (setting [1]) is 0.78 µg/mL (≈ 1.58 µM); in the assay on Ps. aeruginosa721 (setting [2]), 12.5 µg/mL (≈ 25.3 µM); with Kl. pneumoniae 417, 3.13 µg/mL (≈ 6.34 µM); in the assay on Sh. flexneri2a it was 0.39 µg/mL (≈ 0.79 µM); in the assay on Sal. Enteritidis (setting [4]), 0.39 µg/mL (≈ 0.79 µM); with Pr. mirabilis 525 (setting [3]), 1.56 µg/mL (≈ 3.16 µM).
In the case of `Cc1nnc(SCC2=C(C(=O)O)N3C(=O)C(NC(=O)/C(=N\O)c4cccc(O)c4)C3SC2)s1` (stereo not drawn) [Test Compound (5), 7-[2-Hydroxyimino-2-(3-hydroxyphenyl)acetamido]-3-(5-methyl-1,3,4-thiadiazol-2-yl)thiomethyl-3-cephem-4-carboxylic acid (syn isomer)], the MIC in the assay with E coli 341 (setting [1]) was 0.78 µg/mL (≈ 1.54 µM); in the assay with Ps. aeruginosa721 (setting [2]), 6.25 µg/mL (≈ 12.3 µM); in the assay on Kl. pneumoniae 417, 0.78 µg/mL (≈ 1.54 µM); with Sh. flexneri2a, 0.39 µg/mL (≈ 0.768 µM); in the assay with Sal. Enteritidis (setting [4]), 0.2 µg/mL (≈ 0.394 µM); in the assay on Pr. mirabilis 525 (setting [3]) it was 3.13 µg/mL (≈ 6.17 µM).
For the molecule `Cn1nnnc1SCC1=C(C(=O)O)N2C(=O)C(NC(=O)/C(=N\OC(=O)c3ccccc3)c3cccc(O)c3)C2SC1` (stereo not drawn) [Test Compound (6), 7-[2-Benzoyloxyimino-2-(3-hydroxyphenyl)acetamido]-3-(1-methyl-1H-tetrazol-5-yl)thiomethyl-3-cephem-4-carboxylic acid (syn isomer)], the MIC with E coli 341 (setting [1]) was found to be 1.56 µg/mL (≈ 2.62 µM); in the assay with Ps. aeruginosa721 (setting [2]), 12.5 µg/mL (≈ 21 µM); in the assay with Kl. pneumoniae 417, 0.39 µg/mL (≈ 0.655 µM); with Sh. flexneri2a, 0.78 µg/mL (≈ 1.31 µM); with Sal. Enteritidis (setting [4]), 0.39 µg/mL (≈ 0.655 µM); in the assay on Pr. mirabilis 525 (setting [3]) it was 0.78 µg/mL (≈ 1.31 µM).
Turning to `CCOC(=O)O/N=C(\C(=O)NC1C(=O)N2C(C(=O)O)=C(CSc3nnnn3C)CSC12)c1cccc(O)c1` (stereo not drawn) [Test Compound (7), 7-[2-Ethoxycarbonyloxyimino-2-(3-hydroxyphenyl)acetamido]-3-(1-methyl-1H-tetrazol-5-yl)thiomethyl-3-cephem-4-carboxylic acid (syn isomer)], the MIC in the assay with E coli 341 (setting [1]) amounted to 3.13 µg/mL (≈ 5.55 µM); in the assay on Ps. aeruginosa721 (setting [2]) it was 25 µg/mL (≈ 44.4 µM); with Kl. pneumoniae 417 it was 0.39 µg/mL (≈ 0.692 µM); in the assay on Sh. flexneri2a, 1.56 µg/mL (≈ 2.77 µM); with Sal. Enteritidis (setting [4]), 0.2 µg/mL (≈ 0.355 µM); with Pr. mirabilis 525 (setting [3]), 0.39 µg/mL (≈ 0.692 µM).
As for `CC(=O)OCC1=C(C(=O)O)N2C(=O)C(NC(=O)/C(=N\O)c3cccc(O)c3)C2SC1` (stereo not drawn) [Test Compound (8), 7-[2-Hydroxyimino-2-(3-hydroxphenyl)acetamido]cephalosporanic acid (syn isomer)], the MIC in the assay with E coli 341 (setting [1]) was 0.78 µg/mL (≈ 1.79 µM); with Ps. aeruginosa721 (setting [2]) it was 25 µg/mL (≈ 57.4 µM); with Kl. pneumoniae 417, 1.56 µg/mL (≈ 3.58 µM); with Sh. flexneri2a it was 0.78 µg/mL (≈ 1.79 µM); in the assay with Sal. Enteritidis (ENTERITIDIS, 20 h) it was 1.56 µg/mL (≈ 3.58 µM); with Pr. mirabilis 525 (Proteus mirabilis, 525, 20 h), 1.56 µg/mL (≈ 3.58 µM).
`NC(=O)OCC1=C(C(=O)O)N2C(=O)C(NC(=O)/C(=N\O)c3cccc(O)c3)C2SC1` (stereo not drawn) [Test Compound (9), Sodium 7-[2-hydroxyimino-2-(3-hydroxyphenyl)acetamido]-3-carbamoyloxymethyl-3-cephem-4-carboxylate (syn isomer)]: the MIC in the assay with Ps. aeruginosa721 (setting [2]) is 6.25 µg/mL; with Kl. pneumoniae 417, 0.2 µg/mL; with Sh. flexneri2a, 0.78 µg/mL; in the assay on Sal. Enteritidis (setting [4]) it was 0.78 µg/mL; in the assay on Pr. mirabilis 525 (setting [3]), 0.78 µg/mL.
Turning to `Cn1nnnc1SCC1=C(C(=O)O)N2C(=O)C(NC(=O)/C(=N\O)c3ccc(O)c([N+](=O)[O-])c3)C2SC1` (stereo not drawn) [Test Compound (10), 7-[2-Hydroxyimino-2-(3-nitro-4-hydroxyphenyl)acetamido]-3-(1-methyl-1H-tetrazol-5-yl)thiomethyl-3-cephem-4-carboxylic acid (syn isomer)], the MIC came out at 3.13 µg/mL (≈ 5.83 µM) with E coli 341 (setting [1]); 0.39 µg/mL (≈ 0.727 µM) in the assay on Kl. pneumoniae 417; 1.56 µg/mL (≈ 2.91 µM) in the assay with Sh. flexneri2a; 0.2 µg/mL (≈ 0.373 µM) in the assay on Sal. Enteritidis (setting [4]); 0.2 µg/mL (≈ 0.373 µM) in the assay with Pr. mirabilis 525 (setting [3]).
As to `Cc1nnc(SCC2=C(C(=O)O)N3C(=O)C(NC(=O)/C(=N\O)c4ccccc4)C3SC2)s1` (stereo not drawn) [Test Compound (A), 7-(2-Hydroxyimino-2-phenylacetamido)-3-(5-methyl-1,3,4-thiadiazol-2-yl)thiomethyl-3-cephem-4-carboxylic acid (syn isomer), reference compound], the MIC stood at 12.5 µg/mL (≈ 25.4 µM) in the assay with E coli 341 (20 h); 50 µg/mL (≈ 102 µM) in the assay with Ps. aeruginosa721 (setting [2]); 12.5 µg/mL (≈ 25.4 µM) in the assay with Kl. pneumoniae 417; 6.25 µg/mL (≈ 12.7 µM) in the assay with Sh. flexneri2a; 6.25 µg/mL (≈ 12.7 µM) in the assay with Sal. Enteritidis (ENTERITIDIS, 20 h); 25 µg/mL (≈ 50.9 µM) in the assay on Pr. mirabilis 525 (setting [3]).
